Values of other authors as cited in patent US4127520A, “Novel nonadecapeptides, intermediates therefor, and compositions and methods employing said nonadecapeptides” (priority 1977, dated 1978).

Legend:
[1] = injected directly into the brain of the rat
[2] = test system: partially purified brain opiate receptor sites; conditions: natural peptide

For “H-Tyr-Gly-Gly-Phe-Met-OH [methionine enkephalin]”, the analgesic activity [1] is given as “only weak analgesic agent of short duration” and the “binding to partially purified brain opiate receptor sites” value [2] is given as “binds stereo-specifically”.
